Laboratory results: patent EP0582261A1, “Cephalosporin compounds and processes for the preparation thereof” (LUCKY LTD., priority 1992, dated 1994)
In brackets after ≈: the same amount, converted by molar mass.

Tests used:
Assay in all cases: MIC, two-fold dilution method on Müller-Hinton agar
Format in all cases: cell-based
Details in all cases: incubated at 37°C for 20 hours
[1] = tested on: Enterobacter cloacae ATCC 27508
Procedure: (§1) The same procedures as described in Example 163 were repeated using 7-amino-1,8-dimethyl[1,3]imidazo[1,2-c] pyrimidine-5-thione prepared in Preparation Example 36 in place of 7-amino-1-methyl[1,3]imidazo[1,2-c]pyrimidine-5-thione to yield 190mg and 180mg of the title compound(a) and (b), respectively, as white solids.
(§2) These MIC values were taken by employing a two-fold dilution method: that is, two-fold serial dilutions of each of the test compounds were made and dispersed in a Müller-Hinton agar medium; 2µl of the standard test strain which had the 10⁷ CFU(Colony Forming Unit) per ml was inoculated on the medium; and these were incubated at 37°C for 20 hours.

[2] = tested on: Providencia rettgeri ATCC 9250
Procedure: as §1, §2

[3] = tested on: Proteus vulgaris ATCC 6059
Procedure: as §1, §2

[4] = tested on: Proteus mirabilis ATCC 25933
Procedure: as §1, §2

[5] = tested on: Staphylococcus aureus ATCC 6538p
Procedure: as §1, §2

[6] = tested on: Staphylococcus aureus ATCC 10537
Procedure: as §1, §2

[7] = tested on: Morganella morganii ATCC 8076h
Procedure: as §1, §2

[8] = tested on: Bacillus cereus ATCC 11778
Procedure: as §1, §2

[9] = tested on: Enterobacter aerogenes ATCC 29751
Procedure: as §1, §2

[10] = tested on: Escherichia coli ATCC 10536
Procedure: as §1, §2

[11] = tested on: Streptococcus faecalis ATCC 29212
Procedure: as §1, §2

[12] = tested on: Pseudomonas aeruginosa ATCC 25619
Procedure: as §1, §2

[13] = tested on: Klebsiella pneumoniae ATCC 10031
Procedure: as §1, §2

[14] = tested on: Pseudomonas aeruginosa ATCC 27853
Procedure: as §1, §2

[15] = tested on: Shigella flexneri ATCC 11836
Procedure: as §1, §2

[16] = tested on: Serratia marcescens ATCC 27117
Procedure: as §1, §2

[17] = tested on: Citrobacter freundii ATCC 8090
Procedure: as §1, §2

[18] = tested on: Escherichia coli ATCC 25922
Procedure: as §1, §2

[19] = tested on: Salmonella typhimurium ATCC 14028
Procedure: as §1, §2

[20] = tested on: Staphylococcus epidermidis ATCC 12228
Procedure: as §1, §2

[21] = tested on: Pseudomonas aeruginosa ATCC 10145
Procedure: as §1, §2

[22] = tested on: Acinetobacter calcoaceticus ATCC 15473
Procedure: as §1, §2

[23] = tested on: Micrococcus luteus ATCC 9341
Procedure: as §1, §2

[24] = tested on: Bacillus megaterium ATCC 9885
Procedure: as §1, §2

[25] = tested on: Shigella sonnei ATCC 11060
Procedure: as §1, §2

7-[(Z)-2-(2-aminothiazol-4-yl)-2-(1-carboxycyclopentoxyimino)acetamido]-3-(2,7-diamino-1-methyl [1,2,4]triazolo[1,5-c]pyrimidinium-5-yl)thiomethyl-3-cephem-4-carboxylate [Exp. 84]
MIC values against the standard strains [1]: ≤0.008 µg/mL | MIC values against the standard strains [2]: ≤0.008 µg/mL | MIC values against the standard strains [3]: 0.063 µg/mL | MIC values against the standard strains [4]: 0.063 µg/mL | MIC values against the standard strains [5]: 0.25 µg/mL | MIC values against the standard strains [6]: 0.25 µg/mL | MIC values against the standard strains [7]: ≤0.008 µg/mL | MIC values against the standard strains [8]: 32 µg/mL | MIC values against the standard strains [9]: 0.25 µg/mL | MIC values against the standard strains [10]: 0.063 µg/mL | MIC values against the standard strains [11]: 32 µg/mL | MIC values against the standard strains [12]: 1 µg/mL | MIC values against the standard strains [13]: 0.063 µg/mL | MIC values against the standard strains [14]: 1 µg/mL | MIC values against the standard strains [15]: 0.063 µg/mL | MIC values against the standard strains [16]: 0.13 µg/mL | MIC values against the standard strains [17]: 0.063 µg/mL | MIC values against the standard strains [18]: 0.063 µg/mL | MIC values against the standard strains [19]: 0.13 µg/mL | MIC values against the standard strains [20]: 0.5 µg/mL | MIC values against the standard strains [21]: 2 µg/mL | MIC values against the standard strains [22]: 2 µg/mL | MIC values against the standard strains [23]: 0.016 µg/mL | MIC values against the standard strains [24]: 0.25 µg/mL | MIC values against the standard strains [25]: 0.13 µg/mL

CCC(C)(O/N=C(\C(=O)NC1C(=O)N2C(C(=O)[O-])=C(CSc3nc(N)cc4n3nc(N)[n+]4C)CS[C@H]12)c1csc(N)n1)C(=O)O (some centres unmarked) [Exp. 96(b), 7-[(Z)-2-(2-aminothiazol-4-yl)-2-(2-carboxybut-2-oxyimino)acetamido]-3-(2,7-diamino-1-methyl[1,2,4]triazolo[1,5-c]pyrimidinium-5-yl)thiomethyl-3-cephem-4-carboxylate]
MIC values against the standard strains [1]: 0.063 µg/mL (≈ 0.093 µM) | MIC values against the standard strains [2]: ≤0.008 µg/mL | MIC values against the standard strains [3]: 0.063 µg/mL (≈ 0.093 µM) | MIC values against the standard strains [4]: 0.13 µg/mL (≈ 0.192 µM) | MIC values against the standard strains [5]: 1 µg/mL (≈ 1.48 µM) | MIC values against the standard strains [6]: 1 µg/mL (≈ 1.48 µM) | MIC values against the standard strains [7]: ≤0.008 µg/mL | MIC values against the standard strains [8]: 16 µg/mL (≈ 23.6 µM) | MIC values against the standard strains [9]: 0.5 µg/mL (≈ 0.738 µM) | MIC values against the standard strains [10]: 0.13 µg/mL (≈ 0.192 µM) | MIC values against the standard strains [11]: 16 µg/mL (≈ 23.6 µM) | MIC values against the standard strains [12]: 0.5 µg/mL (≈ 0.738 µM) | MIC values against the standard strains [13]: ≤0.008 µg/mL | MIC values against the standard strains [14]: 1 µg/mL (≈ 1.48 µM) | MIC values against the standard strains [15]: 0.031 µg/mL (≈ 0.0457 µM) | MIC values against the standard strains [16]: 0.13 µg/mL (≈ 0.192 µM) | MIC values against the standard strains [17]: 0.13 µg/mL (≈ 0.192 µM) | MIC values against the standard strains [18]: 0.13 µg/mL (≈ 0.192 µM) | MIC values against the standard strains [19]: 0.25 µg/mL (≈ 0.369 µM) | MIC values against the standard strains [20]: 0.5 µg/mL (≈ 0.738 µM) | MIC values against the standard strains [21]: 2 µg/mL (≈ 2.95 µM) | MIC values against the standard strains [22]: 4 µg/mL (≈ 5.9 µM) | MIC values against the standard strains [23]: 0.016 µg/mL (≈ 0.0236 µM) | MIC values against the standard strains [24]: 0.25 µg/mL (≈ 0.369 µM) | MIC values against the standard strains [25]: 0.13 µg/mL (≈ 0.192 µM)

7-[(Z)-2-(2-aminothiazol-4-yl)-2-(2-carboxyprop-2-oxyimino)acetamido]-3-(7-amino-1-methyl [1,2,4]triazolo[1,5-c]pyrimidinium-5-yl)thiomethyl-3-cephem-4-carboxylate [Exp. 1]
MIC values against the standard strains [1]: 0.016 µg/mL | MIC values against the standard strains [2]: ≤0.008 µg/mL | MIC values against the standard strains [3]: 0.063 µg/mL | MIC values against the standard strains [4]: 0.13 µg/mL | MIC values against the standard strains [5]: 4 µg/mL | MIC values against the standard strains [6]: 4 µg/mL | MIC values against the standard strains [7]: ≤0.008 µg/mL | MIC values against the standard strains [8]: 128 µg/mL | MIC values against the standard strains [9]: 1 µg/mL | MIC values against the standard strains [10]: 0.063 µg/mL | MIC values against the standard strains [11]: >128 µg/mL | MIC values against the standard strains [12]: 1 µg/mL | MIC values against the standard strains [13]: 0.063 µg/mL | MIC values against the standard strains [14]: 1 µg/mL | MIC values against the standard strains [15]: 0.031 µg/mL | MIC values against the standard strains [16]: 0.25 µg/mL | MIC values against the standard strains [17]: 0.13 µg/mL | MIC values against the standard strains [18]: 0.13 µg/mL | MIC values against the standard strains [19]: 0.25 µg/mL | MIC values against the standard strains [20]: 1 µg/mL | MIC values against the standard strains [21]: 2 µg/mL | MIC values against the standard strains [22]: 4 µg/mL | MIC values against the standard strains [23]: 0.13 µg/mL | MIC values against the standard strains [24]: 0.25 µg/mL | MIC values against the standard strains [25]: 0.13 µg/mL

7-[(Z)-2-(2-aminothiazol-4-yl)-2-(methoxy-imino)acetamido]-3-(7-amino-1-methyl[1,2,4]triazolo[1,5-c]pyrimidinium-5-yl)thiomethyl-3-cephem-4-carboxylate [Exp. 46]
MIC values against the standard strains [1]: ≤0.008 µg/mL | MIC values against the standard strains [2]: ≤0.008 µg/mL | MIC values against the standard strains [3]: 0.063 µg/mL | MIC values against the standard strains [4]: 0.13 µg/mL | MIC values against the standard strains [5]: 0.13 µg/mL | MIC values against the standard strains [6]: 0.063 µg/mL | MIC values against the standard strains [7]: ≤0.008 µg/mL | MIC values against the standard strains [8]: 8 µg/mL | MIC values against the standard strains [9]: 0.13 µg/mL | MIC values against the standard strains [10]: 0.031 µg/mL | MIC values against the standard strains [11]: 16 µg/mL | MIC values against the standard strains [12]: 2 µg/mL | MIC values against the standard strains [13]: ≤0.008 µg/mL | MIC values against the standard strains [14]: 2 µg/mL | MIC values against the standard strains [15]: 0.016 µg/mL | MIC values against the standard strains [16]: 0.13 µg/mL | MIC values against the standard strains [17]: 0.031 µg/mL | MIC values against the standard strains [18]: 0.031 µg/mL | MIC values against the standard strains [19]: 0.063 µg/mL | MIC values against the standard strains [20]: 0.063 µg/mL | MIC values against the standard strains [21]: 4 µg/mL | MIC values against the standard strains [22]: 2 µg/mL | MIC values against the standard strains [23]: 0.016 µg/mL | MIC values against the standard strains [24]: 0.063 µg/mL | MIC values against the standard strains [25]: 0.063 µg/mL

7-[(Z)-2-(2-aminothiazol-4-yl)-2-((S-1-carboxyeth-1-oxyimino)acetamido]-3-(7-amino-1-methyl [1,2,4]triazolo[1,5-c]pyrimidinium-5-yl)thiomethyl-3-cephem-4-carboxylate [Exp. 22(S)]
MIC values against the standard strains [1]: 0.016 µg/mL | MIC values against the standard strains [2]: ≤0.008 µg/mL | MIC values against the standard strains [3]: 0.31 µg/mL | MIC values against the standard strains [4]: 0.25 µg/mL | MIC values against the standard strains [5]: 4 µg/mL | MIC values against the standard strains [6]: 2 µg/mL | MIC values against the standard strains [7]: ≤0.008 µg/mL | MIC values against the standard strains [8]: 128 µg/mL | MIC values against the standard strains [9]: 0.5 µg/mL | MIC values against the standard strains [10]: 0.031 µg/mL | MIC values against the standard strains [11]: >128 µg/mL | MIC values against the standard strains [12]: 1 µg/mL | MIC values against the standard strains [13]: 0.031 µg/mL | MIC values against the standard strains [14]: 2 µg/mL | MIC values against the standard strains [15]: 0.13 µg/mL | MIC values against the standard strains [16]: 0.13 µg/mL | MIC values against the standard strains [17]: 0.063 µg/mL | MIC values against the standard strains [18]: 0.13 µg/mL | MIC values against the standard strains [19]: 0.25 µg/mL | MIC values against the standard strains [20]: 1 µg/mL | MIC values against the standard strains [21]: 2 µg/mL | MIC values against the standard strains [22]: 4 µg/mL | MIC values against the standard strains [23]: 0.13 µg/mL | MIC values against the standard strains [24]: 0.25 µg/mL | MIC values against the standard strains [25]: 0.063 µg/mL
